# Results reported in patent publication US20210087290A1, “COMPOUNDS WHICH SPECIFICALLY BIND TO CD38 FOR USE IN THE TREATMENT OF NEURODEGENERATIVE AND INFLAMMATORY DISEASES” (ENCEFA, priority 2017, published 2021).
# B1: ABBV-8E12: intravenously injected monoclonal antibody cited for its brain/plasma ratio in humans (antibody, chains of the INN, looked up, V domains shown)
# VH: EVKVVESGGGLVQPGGSMKLSCVVSGFTFSNYWVNWVRQAPGKGLEWVAQIRLKSDNYATHYEESVKGRFTISRDDSKSSVYLQMNNLRAEDSGIYYCTNWEDYWGQGTTVTVSS
# VL: DIVLTQSPDSLAVSLGERATISCRASQSVSTSRYSYIHWYQQKPGQPPKLLIKYASNLESGVPSRFSGSGSGTDFTLNIHPLEPEDFATYYCHHSWEIPLTFGQGTKLEIK
# How the values were obtained:
# DA (TH^+) neurons [1] = test: MPP^+ intoxication model, DA cell survival in midbrain cultures; assay type: cell-based, Wistar rat
# Protocol: (§1) Animals were treated in accordance with the Guide for the Care and Use of Laboratory Animals (National Research Council, 1996), European Directive 86/609, and the guidelines of the local institutional animal care and use committee. Cultures were prepared from the ventral mesencephalon of gestational age 15.5 Wistar rat embryos (Janvier Breeding Center, Le Genest St Isle, France). Dissociated cells in suspension obtained by mechanical trituration of midbrain tissue pieces were seeded at a density of 1.2-1.5 10^5 cells/cm^2 onto tissue culture supports precoated with 1 mg/mL polyethylenimine diluted in borate buffer pH 8.3 as described (Michel et al., 1997. J Neurochem. 69(4):1499-507). […] They were fed daily by replacing 70% of the medium. Routinely, mesencephalic cultures were established on Nunc 24-well culture plates (Thermofischer Scientific, Rochester, N.Y.). Note that these cultures contain tyrosine hydroxylase (TH)^+ neurons that were exclusively dopaminergic (Traver et al., 2006. Mol Pharmacol. 70(1):30-40). TH^+ neurons represented approximately 1-2% of the total number of neuronal cells present in these cultures. The evaluation of the survival of DA neurons was performed by counting cells immunopositive for TH as described (Toulorge et al., 2011. Faseb J. 25(8):2563-73).
# Treatments with MPP^+ were performed in cultures where the spontaneous death process was prevented by long-term exposure to depolarizing concentrations of K^+ (30 mM), in the presence of the glutamate receptor antagonist MK801 (5 μM) to prevent unwanted excitotoxic insults as described previously (Douhou et al., 2001. J Neurochem. 78(1):163-74). Treatments with MPP^+ and potential neuroprotective molecules were carried out between 5 and 7 DIV. The number of microglial cells was evaluated in this same model since MPP^+ is known to induce microglial proliferation (Henze et al., 2005. J Neurochem. 95(4):1069-77).
# The cultures were fixed for 12 min using 4% formaldehyde in Dulbecco's phosphate-buffered saline (PBS), then washed twice with PBS before an incubation step at 4° C. for 24 h with the following antibodies. A monoclonal anti-TH antibody diluted 1/5000 (ImmunoStar, Inc., Hudson, Wis.) or a polyclonal anti-TH antibody diluted 1/1000 (US Biologicals, Salem, Mass.) was used to assess the survival of DA neurons. A monoclonal anti-MAP2 antibody diluted at 1/250 (clone AP20, Sigma-Aldrich) was used to assess the survival of cortical neurons. Microglial cells were characterized using a mouse anti-Ibal antibody (1/50; clone MRC OX-42; Pharmingen, BD Biosciences, Le Pont-de-Claix, France). All antibodies were diluted in PBS containing 0.2% Triton X-100, except the mouse anti-Ibal which was diluted in PBS only. Detection of the primary antibodies was performed with an Alexa Fluor-488 conjugate of an anti-mouse IgG antibody or with an Alexa Fluor-555 conjugate of an anti-rabbit antibody (1:500).
# dopaminergic neurons = test: Prevention of dopaminergic neurons cell death (summary statement); assay type: cell-based
# cortical neurons [2] = test: Excitotoxicity model (glutamate) in cortical cultures; assay type: cell-based, Wistar rat; conditions: glutamate 75 μM between 12 and 14 DIV; NAD^+ 3 mM, antibodies 1 μg/mL
# Protocol: (§2) Animals were treated in accordance with the Guide for the Care and Use of Laboratory Animals (National Research Council, 1996), European Directive 86/609, and the guidelines of the local institutional animal care and use committee. Cultures were prepared from the cortex of gestational age 15.5 Wistar rat embryos (Janvier Breeding Center, Le Genest St Isle, France). Dissociated cells in suspension obtained by mechanical trituration of cortical tissue pieces were seeded onto tissue culture supports precoated with 1 mg/mL polyethylenimine diluted in borate buffer pH 8.3 according to the protocol previously described for mesencephalic cultures. […] They were fed daily by replacing 70% of the medium. Routinely, cortical cultures were established on Nunc 24-well culture plates (Thermofischer Scientific, Rochester, N.Y.).
# Glutamate (75 μM) was added to cortical cultures between 12 and 14 DIV in the presence or the absence of potential neuroprotective treatments. The cultures were then fixed in formaldehyde and immunostained using anti-MAP-2 antibody. The area occupied by MAP-2^+ neurons was assessed using ImageJ.
# (§3) The cultures were fixed for 12 min using 4% formaldehyde in Dulbecco's phosphate-buffered saline (PBS), then washed twice with PBS before an incubation step at 4° C. for 24 h with the following antibodies. […]
# cortical neurons [3] = test: Oxidative stress model (H2O2) in cortical cultures; assay type: cell-based, Wistar rat; conditions: H2O2 75 μM between 12 and 14 DIV; NAD^+ 3 mM, antibodies 1 μg/mL
# Protocol: as §2
# H2O2 (75 μM) was added to cortical cultures between 12 and 14 DIV in the presence or the absence of potential neuroprotective molecules. The cultures were then fixed in formaldehyde and immunostained using anti-MAP-2 antibody. The area occupied by MAP-2′ neurons was assessed using ImageJ.
# as §3
# cortical neurons [4] = test: Measurement of glucose uptake in cortical neurons (2-NBDG); assay type: cell-based, Wistar rat; conditions: acute treatment 30 min, 7 DIV; HB7 1 μg/mL, NAD^+ 3 mM, insulin 100 nM
# Protocol: In brief, cultures grown for 7 days were incubated with 2-NBDG (300 μM) for 30 min at 37° C. in the presence of test compounds in glucose-free N5 medium, washed twice to remove excess indicator, and then left to recover for 30 min before assessment. The fluorescent signal (excitation, 465 nm; emission, 540 nm) was acquired using an Arrayscan (ThermoFischer Scientific) and quantified using ImageJ. The average pixel intensity over the surface of each cell body was determined under the different experimental conditions. Background fluorescence was subtracted from raw data, and the results were expressed as a percentage of mean fluorescence intensity per cell under control conditions. 100 cells were analysed under each test condition.
# DA (TH^+) neurons [5] = test: GDNF withdrawal model in midbrain cultures; conditions: GDNF 20 ng/mL for 10 DIV, deprived 11-15 DIV; NAD^+ 3 mM, antibodies 1 μg/mL
# Description: They were fed daily by replacing 70% of the medium. Routinely, mesencephalic cultures were established on Nunc 24-well culture plates (Thermofischer Scientific, Rochester, N.Y.). […] TH^+ neurons represented approximately 1-2% of the total number of neuronal cells present in these cultures.
# To evaluate the efficacy of our compounds in a more mature population of DA neurons, we also used a variation of the previous model system. More precisely, spontaneous DA cell death was prevented up to 10 DIV by a chronic treatment with GDNF (20 ng/mL) to favor the maturation of healthy DA neurons. Then, DA cell death was triggered by total withdrawal of GDNF for the next 5 days.
# The cultures were fixed for 12 min using 4% formaldehyde in Dulbecco's phosphate-buffered saline (PBS), then washed twice with PBS before an incubation step at 4° C. for 24 h with the following antibodies. A monoclonal anti-TH antibody diluted 1/5000 (ImmunoStar, Inc., Hudson, Wis.) or a polyclonal anti-TH antibody diluted 1/1000 (US Biologicals, Salem, Mass.) was used to assess the survival of DA neurons. […] All antibodies were diluted in PBS containing 0.2% Triton X-100, except the mouse anti-Ibal which was diluted in PBS only.
# [6] = test system: midbrain DA (TH^+) neurons; test: Spontaneous and progressive dopaminergic (DA) cell death in midbrain cultures; assay type: cell-based, Wistar rat; conditions: NAD^+ 3 mM, antibodies 1 μg/mL
# Protocol: as §1
# We used a model system in which DA cell loss was spontaneous. […]
# interleukin-10 (IL-10) = conditions: in vivo; cited from earlier work
# [7] = in humans; cited from earlier work
molecule,measurement,setting,value
"NC(=O)c1ccc[n+]([C@@H]2O[C@H](COP(=O)(O)OP(=O)([O-])OC[C@H]3O[C@@H](n4cnc5c(N)ncnc54)[C@H](O)[C@@H]3O)[C@@H](O)[C@@H]2F)c1 [ARA-F-NAD, ara-2′-deoxy-2′-fluoro-nicotinamide adenine dinucleotide]",MPP^+-induced DA cell loss,"DA (TH^+) neurons [1]; ARA-F-NAD 200 μM during the intoxication period, MPP^+ 3 μM",almost totally prevented
same,neuroprotective effect in the presence of Ned-19,"DA (TH^+) neurons [1]; ARA-F-NAD 200 μM, Ned-19 2 μM",abolished
"NC(=O)c1ccc[n+]([C@@H]2O[C@H](COP(=O)([O-])OP(=O)(O)OC[C@H]3O[C@@H](n4cnc5c(N)ncnc54)[C@H](O)[C@@H]3O)[C@@H](O)[C@H]2O)c1 [NAD^+, nicotinamide adenine dinucleotide]",concentration at which the neuroprotective effect was exerted,dopaminergic neurons,3 mM
same,protection from excitotoxicity,cortical neurons [2],protected from excitotoxicity
same,protection from oxidative stress,cortical neurons [3],protected from oxidative stress
same,glucose uptake,cortical neurons [4],only modestly increased glucose uptake
same,TH^+ neurons saved from death after GDNF deprivation,DA (TH^+) neurons [5],saved from death
same,number of midbrain DA (TH^+) neurons,[6]; 10 DIV cultures chronically exposed,increased the number of midbrain DA (TH^+) neurons
same,neuroprotective effect in the presence of Ned-19,[6]; Ned-19 2 μM,slightly but significantly
same,neuroprotective effect in the presence of Ex-527,"DA (TH^+) neurons [1]; Ex-527 100 μM, HB7 1 μg/mL, NAD^+ 3 mM, MPP^+ model",only antagonized
same,MPP^+-induced DA cell loss,"DA (TH^+) neurons [1]; MPP^+ 3 μM between 5 and 7 DIV, NAD^+ 3 mM, antibodies 1 μg/mL",either partially or almost totally prevented
same,neuroprotective effect in the presence of dantrolene,"DA (TH^+) neurons [1]; dantrolene 30 μM (FIG. 9), HB7 1 μg/mL, NAD^+ 3 mM, cADPR 200 μM, MPP^+ model",only antagonized
daratumumab: anti-CD38 antibody approved for the treatment of multiple myeloma,plasma levels of anti-inflammatory interleukin-10 (IL-10),interleukin-10 (IL-10),decrease
isatuximab: anti-CD38 antibody,plasma levels of anti-inflammatory interleukin-10 (IL-10),interleukin-10 (IL-10),decrease
B1,Brain/plasma ratio,[7],0.385%
